According to paper PMC3265362 (Biochemical Journal, 2008):
Values joined by “and” are separate entries in the source; they are usually repeats but may differ in a detail not shown here. Equal values may be shown once.

Columns and labels:
human QR2 [1] = target: T1, human QR2 (Homo sapiens, UniProt P16083); experiment: ITC; type: binding; conditions: for ΔG / −TΔS / ΔH: single-site binding model; for ΔH: 50 mM Hepes pH 7.5, 100 mM NaCl, 1 mM TCEP
T1 sequence (P16083 1-231): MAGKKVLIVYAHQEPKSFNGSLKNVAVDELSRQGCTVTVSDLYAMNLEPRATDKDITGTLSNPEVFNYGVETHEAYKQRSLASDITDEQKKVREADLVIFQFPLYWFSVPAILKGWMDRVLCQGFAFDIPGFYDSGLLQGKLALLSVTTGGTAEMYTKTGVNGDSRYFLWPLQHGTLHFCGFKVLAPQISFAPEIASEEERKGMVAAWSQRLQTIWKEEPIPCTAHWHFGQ

human QR2 [2] = target: T1, human QR2; experiment: Steady-state kinetics, mechanism of inhibition of QR2; type: biochemical; conditions: fixed NMeH 100 μM, various menadione
human QR2 [3] = target: T1, human QR2; conditions: read-out: IC50 value, Mammalian cells; cytosolic fraction of mammalian cell lines overexpressing human QR2, dihydrobenzylnicotinamide as co-substrate; ref [37]; cited from earlier work
[4] = target: T2, human QR2 (quinone reductase 2) (human), P16083; experiment: crystal structure; conditions: remark: other sources report otherwise
T2 chain: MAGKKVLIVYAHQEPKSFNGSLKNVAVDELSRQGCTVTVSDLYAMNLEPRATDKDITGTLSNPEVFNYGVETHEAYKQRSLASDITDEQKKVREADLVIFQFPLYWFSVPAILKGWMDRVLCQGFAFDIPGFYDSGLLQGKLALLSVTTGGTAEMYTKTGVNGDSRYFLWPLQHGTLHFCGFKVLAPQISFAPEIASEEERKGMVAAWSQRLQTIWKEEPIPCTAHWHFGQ

| Molecule | h (Hill coefficient, a measure of the stoichiometry of binding) (human QR2 [1]) | ΔG (human QR2 [1]) [kcal/mol] | −TΔS (human QR2 [1]) [kcal/mol] | ΔH (human QR2 [1]) [kcal/mol] | ΔH (human QR2 [1]; listed as 2-iodomelatonin) [kcal/mol] | Ki (uncompetitive against menadione) (human QR2 [2]) | ΔH (human QR2 [1]; listed as melatonin) [kcal/mol] | IC50 (human QR2 [3]) [µM] | stoichiometry N [4] |
| --- | --- | --- | --- | --- | --- | --- | --- | --- | --- |
| COc1ccc2[nH]c(I)c(CCNC(C)=O)c2c1 [2-Iodomelatonin] | 0.8 | -8.5 ± 0.38 | -0.65 ± 0.24 | -7.85 ± 0.62 | -7.85 | – | – | – | – |
| COc1ccc2[nH]cc(CCNC(C)=O)c2c1 [Melatonin] | 0.8 | -8.07 ± 0.3 | 2.38 ± 0.11 | -10.45 ± 0.4 | – | 92 µM and 91.6 ± 4.6 µM | -10.45 | – | – |
| CC(=O)NCCc1c[nH]c2ccc(O)cc12 [N-Acetyl-5-hydroxytryptamine] | – | – | – | – | – | – | – | 99 ± 14 | – |
| Oc1ccc(/C=C/c2cc(O)cc(O)c2)cc1 [Resveratrol] | 0.9 | -9.8 ± 0.50 | 5.01 ± 0.61 | -14.6 ± 0.15 | – | – | – | – | – |
| human QR2 (quinone reductase 2), P16083 1-231 (enzyme) MAGKKVLIVYAHQEPKSFNGSLKNVAVDELSRQGCTVTVSDLYAMNLEPRATDKDITGTLSNPEVFNYGVETHEAYKQRSLASDITDEQKKVREADLVIFQFPLYWFSVPAILKGWMDRVLCQGFAFDIPGFYDSGLLQGKLALLSVTTGGTAEMYTKTGVNGDSRYFLWPLQHGTLHFCGFKVLAPQISFAPEIASEEERKGMVAAWSQRLQTIWKEEPIPCTAHWHFGQ | – | – | – | – | – | – | – | – | 2 |
